The results in this text go back to ChEMBL document CHEMBL3785024 (Br J Clin Pharmacol, 2004).

Common to all, as to type: ADME, organism-based
A short description of data set [1]: Cmax in healthy human subjects at 40 mg with water administered as single dose measured upto 24 hrs by LC-MS analysis. More on the design: dose 40 mg. To be noted: in vivo, oral.
A short description of data set [2]: Elimination half life in healthy human subjects at 40 mg with water administered as single dose measured upto 24 hrs by LC-MS analysis. The settings on record: in vivo, oral, read-out: beta t1/2 (converted).
Data set [3] can be described thus: AUC (0 to 24 hrs) in healthy human subjects at 40 mg with water administered as single dose measured upto 24 hrs by LC-MS analysis. More on the design: time < 24 hr, dose 40 mg. To be noted: in vivo, oral.
Data set [4] deals with Homo sapiens. Put plainly: Cmax in healthy human subjects assessed as simvastatin acid at 40 mg with water administered as single dose measured upto 24 hrs by LC-MS analysis. On the set-up: dose 40 mg. The settings on record: in vivo, po.
Data set [5] concerns Homo sapiens. In words: Elimination half life in healthy human subjects assessed as simvastatin acid at 40 mg with water administered as single dose measured upto 24 hrs by LC-MS analysis. The settings on record: in vivo.
Data set [6] deals with Homo sapiens. Put plainly: AUC (0 to 24 hrs) in healthy human subjects assessed as simvastatin acid at 40 mg with water administered as single dose measured upto 24 hrs by LC-MS analysis. On the set-up: dose 40 mg, time < 24 hr. The settings on record: in vivo, po.
Data set [7] is described as follows: Cmax in healthy human subjects at 40 mg with 200 ml grape fruit juice drug administered as single dose on day 3 of grape fruit juice challenge measured upto 24 hrs by LC-MS analysis. On the set-up: dose 40 mg. To be noted: in vivo, oral.
The nature of data set [8]: Elimination half life in healthy human subjects at 40 mg with 200 ml grape fruit juice drug administered as single dose on day 3 of grape fruit juice challenge measured upto 24 hrs by LC-MS analysis. The settings on record: in vivo, oral, read-out: beta t1/2 (converted).
Data set [9] can be described thus: AUC (0 to 24 hrs) in healthy human subjects at 40 mg with 200 ml grape fruit juice drug administered as single dose on day 3 of grape fruit juice challenge measured upto 24 hrs by LC-MS analysis. The settings on record: in vivo, oral. On the set-up: dose 40 mg, time < 24 hr.
Data set [10] concerns Homo sapiens. Put plainly: Cmax in healthy human subjects assessed as simvastatin acid at 40 mg with 200 ml grape fruit juice drug administered as single dose on day 3 of grape fruit juice challenge measured upto 24 hrs by LC-MS analysis. More on the design: dose 40 mg. To be noted: in vivo.
Data set [11] relates to Homo sapiens. In words: Elimination half life in healthy human subjects assessed as simvastatin acid at 40 mg with 200 ml grape fruit juice drug administered as single dose on day 3 of grape fruit juice challenge measured upto 24 hrs by LC-MS analysis. The settings on record: in vivo.
Data set [12] has as its system Homo sapiens. In words: AUC (0 to 24 hrs) in healthy human subjects assessed as simvastatin acid at 40 mg with 200 ml grape fruit juice drug administered as single dose on day 3 of grape fruit juice challenge measured upto 24 hrs by LC-MS analysis. More on the design: time < 24 hr, dose 40 mg. To be noted: in vivo.

As to `CCC(C)(C)C(=O)O[C@H]1C[C@@H](C)C=C2C=C[C@H](C)[C@H](CC[C@@H]3C[C@@H](O)CC(=O)O3)[C@H]21` [SIMVASTATIN], the Cmax (commonly the peak of the concentration-time curve) in [1] was 7.3 ng/mL; with Homo sapiens [4], 2.6 ng/mL; in data set [7] it was 28.5 ng/mL; in the data set with Homo sapiens [10] it was 11.1 ng/mL. Also, the half-life is 2.7 h in data set [2] and 2 h in data set [8]. In addition, the values for the AUC(0-t) at 24 h in [3] and in data set [9] were 31.6 ng·h/mL and 112 ng·h/mL, respectively. For the same compound, the “beta t1/2” value with Homo sapiens [5] is 2.9 h; in the data set on Homo sapiens [11], 2.4 h. The results for the AUC in the data set with Homo sapiens [6] and with Homo sapiens [12] were 18.5 ng·h/mL and 62 ng·h/mL, respectively.
